Measurements published in patent publication US9119821B2, “Use of methionine sulfoximine to treat acute liver failure and other diseases caused by an inflammatory cytokine response” (priority 2010, dated 2015).
Read-outs that look alike come from different tables or passages of the source.

Tests used:
glutamine synthetase = target: T1, glutamine synthetase (Mus musculus, UniProt P15105); test: Glutamine synthetase activity in liver extracts of treated mice; type: in vivo
T1 construct: liver homogenates were prepared from liver tissue excised and immediately homogenized; from tissue; host or cells: mouse liver homogenate supernatant
T1 sequence (P15105 2-373 limits assumed): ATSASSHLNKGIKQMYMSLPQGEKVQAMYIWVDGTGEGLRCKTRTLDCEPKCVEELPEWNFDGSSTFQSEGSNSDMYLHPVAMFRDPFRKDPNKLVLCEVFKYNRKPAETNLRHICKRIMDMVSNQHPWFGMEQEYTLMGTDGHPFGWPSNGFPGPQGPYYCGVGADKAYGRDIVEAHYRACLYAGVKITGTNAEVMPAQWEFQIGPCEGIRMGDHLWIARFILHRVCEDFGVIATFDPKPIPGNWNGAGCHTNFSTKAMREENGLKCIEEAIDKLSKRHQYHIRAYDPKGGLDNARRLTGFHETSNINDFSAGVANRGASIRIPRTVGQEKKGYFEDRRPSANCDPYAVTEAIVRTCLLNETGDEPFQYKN
Method: (§1) Tissue and plasma were collected from male mice, which were divided into two groups. One group was injected with saline three hours prior to LPS/D-GalN injections. The second group was given MSO three hours prior to being injected with LPS/D-GalN. Control mice (t=0) were treated with MSO or saline for 3 hours and then euthanized (not exposed to LPS/D-GalN). After LPS/D-GalN injection at time zero, tissue and plasma samples were collected at one-hour time intervals from 1 to 5 hours.
To analyze enzyme activities liver homogenates were prepared from liver tissue excised and immediately homogenized in ice-cold buffer consisting of 250 mM sucrose, 10 mM Tris and 0.1 mM EGTA with protease inhibitor cocktail (Sigma #P8340). The homogenized tissue was centrifuged at 2375×g for 5 min. The tissue supernatant fraction was frozen on dry ice and stored at −80° C.
Glutamine synthetase was assayed as described by Meister, A. Glutamine synthetase from mammalian tissues. […] The reaction with the substrates glutamine and hydroxylamine was stopped using ferric chloride stop solution (0.37 M FeCl3, 0.67 M HCl, 0.20 M TCA) and the colorimetric product formed—γ-glutamyl hydroxamate—was measured at 535 nm. The absorbance values were converted to activities by comparison to a standard curve of pure glutamyl hydroxamate (a generous gift from Arthur J. Cooper, Department of Biochemistry and Molecular Biology, New York Medical College).

[1] = system: 40 different mouse cytokines
Method: as §1
For experiments analyzing plasma cytokines, the male mice from the groups described above were anesthetized using Avertin (solution of 15.5 mis of tert-amyl alcohol—Sigma #240486 and 25 g of 2-2-2 tribromoethanol—Sigma #T48402) and blood was collected by cardiac puncture. Plasma was obtained by transferring blood to plasma separator tubes containing lithium heparin (BD Microtainer tubes). Plasma samples were immediately frozen on dry ice and stored at −80° C.
Mouse cytokine array kits (Proteome Profiler Arrays—cat #ARY006) were obtained from R&D Systems and used according to the manufacturer's guidelines. Each array, which consisted of a nitrocellulose membrane spotted with 40 different mouse cytokines, was tested with two hundred microliters of plasma from one animal. Each condition was duplicated—two mice for each group. Control blots were from plasma collected from two untreated mice (not injected with LPS/D-GalN and/or MSO). For untreated and MSO-treated groups, plasma was collected at either 1 hour or 3 hours after LPS/D-GalN administration. The blots were developed using the Immun-Star WesternC Kit (BIO-RAD cat #170-5070) on a BIO-RAD imager. The corresponding Quantity One software of the BIO-RAD imager was used to quantify the signal obtained on the blots.

STAT1 = conditions: liver homogenates, five hours after LPS/D-GalN
Method: (§2) Immunoblots of cleaved caspase-3 and phospho-STAT proteins: Liver homogenates were prepared from male mice five hours after IP administration of LPS/D-GalN. […] Glyceraldehyde-3-phosphate dehydrogenase (GAPDH—Chemicon, Milano, Italy) was used as a loading control).

STAT3 = conditions: liver homogenates; both LPS/D-GalN treated and untreated mice
Method: as §2

caspase-3 = conditions: mouse, in vivo
Method: as §2

peritoneal macrophages = conditions: for TNF-α in culture supernatant, average ELISA value: four hours after LPS, LPS control 527
Method: Peritoneal macrophages were isolated from the abdomens of CD-1 mice, and 2×10^4 cells were added to each well of a 6-well cell culture plate. The cells were incubated in RPMI—1640 (with 2.05 mM glutamine) with 5% fetal calf serum and 1% penicillin/streptomycin (all solutions were from Hyclone) for 4 hours. The medium was then changed to remove any non-adherent cells, and the cells were again incubated in a 5% CO2 incubator for 16 hours. In each plate, one well was a negative control (no treatment), one well was a MSO control (9 mM) and one well was a LPS control (1 μg/ml LPS). The other three wells were treated with 9 mM MSO and 1 μg/ml LPS. One well was treated with MSO for 3 hours, and LPS was then added. In another well, LPS and MSO were added at the same time. Time of LPS addition was considered time zero. Four hours after LPS addition the cell culture medium was collected and 50 μL of the medium was mixed with 50 μl of blocking buffer and used for the TNF-α ELISA assay.
Macrophages coordinate the early phases of LPS-induced inflammatory response, through the synthesis of TNF-α and other cytokines. In vitro experiments were conducted to directly test if MSO inhibits TNF-α production on LPS-stimulated macrophages obtained from mouse peritoneum. Macrophages were triggered with LPS with or without MSO, wherein the MSO was added either three hours before, one hour after, or at the same time as LPS. Four hours after LPS addition, TNF-α in the culture supernatant was quantitated by ELISA, as described in Methods.

[2] = one hour after LPS/D-GalN, versus LPS/D-GalN alone
[3] = three hours after LPS/D-GalN, same reduction in LPS/D-GalN animals without MSO

## CS(=N)(=O)CC[C@H](N)C(=O)O (stereo partly drawn) [MSO, methionine sulfoximine]
Glutamine synthetase; liver extracts, 50 mg/kg IP three hours prior to LPS/D-GalN, all time points
  glutamine synthetase activity relative to animals pre-treated with saline: less than 10%
Glutamine synthetase; long term MSO treatment
  inhibition of glutamine synthetase in the liver: 90%
[1]; [2]
  reduction of IL-6 in plasma: > 50%
  reduction of TNF-α in plasma: > 50%
[1]; three hours after LPS/D-GalN
  I-TAC in plasma: not detected
  JE in plasma: either reduced or not detected
  KC values: same as in LPS/D-GalN animals
  M-CSF values: same for all three groups
  MCP-5 in plasma: increased
  MIG in plasma: not detected
  MIP-1a in plasma: either reduced or not detected
  MIP-1b in plasma: either reduced or not detected
  MIP-2 in plasma: increased
  RANTES in plasma: either reduced or not detected
  TIMP-1 values: reduced to approximately control values
  TNF-α induction by LPS/D-GalN: abrogated
  induction of IFN-γ by LPS/D-GalN: abolished
  induction of IL-1ra by LPS/D-GalN: abolished
  induction of IL-6 by LPS/D-GalN: abolished
  induction of IL-16 by LPS/D-GalN: abolished
  induction of IL-23 by LPS/D-GalN: abolished
  reduction of IL-1a level: more than 50%
  reduction of IP-10: more than 50%
[1]; three hours after LPS/D-GalN, 22 of the 40 cytokines elevated
  number of elevated cytokines reduced by pretreatment: 20
[1]; [3]
  reduction in C5a: 10-20%
  reduction in sICAM: 10-20%
STAT1
  increase in STAT1 activation by LPS/D-GalN: eliminated
STAT3
  phosphorylated STAT3: decreased
caspase-3
  caspase-3 activation: completely prevented
Peritoneal macrophages; 9 mM MSO added at the same time as LPS (1 μg/ml)
  TNF-α in culture supernatant, average ELISA value: 442 pg/50 μL
Peritoneal macrophages; 9 mM MSO added one hour after LPS (1 μg/ml)
  TNF-α in culture supernatant, average ELISA value: 430 pg/50 μL
Peritoneal macrophages; 9 mM MSO added three hours before LPS (1 μg/ml), 2 mM glutamine
  TNF-α in culture supernatant, average ELISA value: 393 pg/50 μL
Peritoneal macrophages; 9 mM MSO, depending upon the time of addition
  average reductions in TNF-α: 16-25%
